According to patent US20070167412A1, “HALOCOMBSTATINS AND METHODS OF SYNTHESIS THEREOF” (ARIZONA BOARD OF REGENTS, priority 2003, published 2007):

What was measured:
Experiment in all cases: human cancer cell growth inhibition, sulforhodamine B assay
Format in all cases: cell-based
Details in all cases: Table I; 48 hours
[1] = system: Breast MCF-7
Method: (§1) Inhibition of human cancer cell growth was assessed using the National Cancer Institute's standard sulforhodamine B assay. After 48 hours, the plates were fixed with trichloracetic acid, stained with sulforhodamine B and read with an automated microplate reader. […] Inhibition of the mouse leukemia P388 cells was assessed in a 10% horse serum/Fisher medium soution for 24 hours, followed by a 48 hour incubation with serial dilutions of the compounds. Cell growth inhibition (ED50) was then calculated using a Z1 Becleman/Coulter particle counter.

[2] = system: CNS SF268
Method: as §1

[3] = system: Colon KM20L2
Method: as §1

[4] = system: Lung-NSC NCI-H460
Method: as §1

[5] = system: Pancreas BXPC-3
Method: as §1

[6] = system: Prostate DU-145
Method: as §1

| Substance | Human cancer cell line inhibition (GI50) Breast adn MCF-7 [1] | Human cancer cell line inhibition (GI50) CNS SF268 [2] | Human cancer cell line inhibition (GI50) Colon KM20L2 [3] | Human cancer cell line inhibition (GI50) Lung-NSC NCI-H460 [4] | Human cancer cell line inhibition (GI50) Pancreas-a BXPC-3 [5] | Human cancer cell line inhibition (GI50) Prostate DU-145 [6] |
| --- | --- | --- | --- | --- | --- | --- |
| Calcium 3-bromo-4,4′,5-trimethoxy-Z-stilbene 3′-O-phosphate [Compound 19f] | 2.2 ng/mL | 2.2 ng/mL | 370 ng/mL | 6.8 ng/mL | <1 ng/mL | 6.3 ng/mL |
| Cesium 3-bromo-4,4′,5-trimethoiy-phenyl-Z-stilbene 3′-O-phosphate [Compound 19d] | 4.4 ng/mL | 6.4 ng/mL | 480 ng/mL | 6.6 ng/mL | 150 ng/mL | 7.9 ng/mL |
| Lithium 3-bromo-4,4′,5-trbnethoxy-Z-stilbene 3′-O-phosphate [Compound 19b] | 3.9 ng/mL | 3 ng/mL | 110 ng/mL | 2.6 ng/mL | 130 ng/mL | 6.6 ng/mL |
| Magnesium 3-bromg-4,4′,5-trimethoxy-Z-stilbene 3′-O-phosphate [Compound 19g] | 4.5 ng/mL | 5.3 ng/mL | 270 ng/mL | 3.9 ng/mL | 74 ng/mL | 4.5 ng/mL |
| Potassium 3-bromo-4,4′,5-trimethoxy-Z-stilbene 3′-O-phosphate [Compound 19c] | 3.5 ng/mL | 3.2 ng/mL | 240 ng/mL | 2.9 ng/mL | 200 ng/mL | 2.8 ng/mL |
| Rubidium 3-bromo-4,4′,5-trimetboxy-Z-stilbene 3′-O-phosphate [Compound 19e] | 43 ng/mL | 23 ng/mL | 2600 ng/mL | 41 ng/mL | 560 ng/mL | 42 ng/mL |
| Sodium 3-bromo-4,4′,-5-trimethoxy-Z-stilbene 3′-O-phosphate [Compound 19a] | 4.1 ng/mL | 3.4 ng/mL | 230 ng/mL | 2.8 ng/mL | 93 ng/mL | 4.6 ng/mL |
| sodium combretastatin A-4 phosphate [Compound 1b, reference compound] | – | 36 ng/mL | 34 ng/mL | 29 ng/mL | – | – |
